Measurements reported in publication PMC3933800, “Synthesis, Anti-Inflammatory and Anti- Nociceptive Activities and Cytotoxic Effect of Novel Thiazolidin-4-ones Derivatives as Selective Cyclooxygenase (COX-2) Inhibitors” (Iranian Journal of Basic Medical Sciences, 2013).

How the values were obtained:
mice [1] = test: Acetic acid-induced writhing test; format: in vivo, BALB/c mice; conditions: Mus musculus, IP, acetic acid 0.7% 1 hr after compound, writhing counted 30 min
Procedure: (§1) Animal experiments were carried out using 20-30 g male BALB/c mice purchased from Razi Institute, Mashhad, Iran. Animals were kept in plastic cages at room temperature of 21±2°C and 12 hr light/dark cycle. All experiments were performed according to the National Institute of Health guidelines for the care and use of laboratory animals and to the European Community Directive for the Care and use of Laboratory Animals of 1986 (86/609/EEC), and approved by our Institution’s Animal Care Committee.
The nociceptive responses in mice were investigated using writhing test. […] The number of abdominal constrictions (writhing episode) seen in treated animals was counted during a 30 min period ([12]). Celecoxib and normal saline was respectively used as positive and negative control.

mice [2] = test: Xylene-induced ear edema test; format: in vivo, BALB/c mice; conditions: Mus musculus, IP 30 min before xylene, ears weighed after 2 hr
Procedure: as §1
The effect of the analogues against acute inflammation was studied using xylene-induced ear edema test in mice.
Thirty minutes later, edema was induced in each group by applying 0.03 ml of xylene to the inner surface of the right ear. After 2 hr, the mice were sacrificed under ether anesthesia and both ears were removed, sized and weighed. The increase in weight caused by the irritant was measured by subtracting the weight of the untreated left ear section from that of the treated right ear sections ([12]).

Caco-2 cells = format: cell-based; conditions: IC50 concentration, 24 hr; untreated control 9.9
Procedure: (§2) A suspension of untreated Caco-2 or MCF-7cells (1×10^6 cells/ml) was used as negative control. Both control and test samples of cell cultures were incubated for 24 hr at 37°C and 5% CO2 atmosphere. After 24 hr incubation, adherent cells were collected, washed three times with phosphate-citrate buffer (0.2 M, pH 7.8) and fixed for 24 hr with cool ethanol at 4°C. Propidium iodide was then added to a final concentration of 50 µg/ml for DNA staining and the cells were incubated and light protected at room temperature for 3 hr. The fluorescence of the cells was analyzed in a FACScan flow cytometer (Becton Dickinson, USA). The obtained cytometric data were analyzed using WinMDI 2.8 software (The Scripps Research Institute, USA).

[3] = test system: Caco-2 (human colorectal cancer); test: MTT cytotoxicity assay, Caco-2; format: cell-based; conditions: means of three experiments, 24 hr, read-out: IC50 Caco-2 (anti-proliferative activity)
Procedure: (§3) Human tumor cell lines of two different histological origins were used: Caco-2 (human colorectal cancer) and MCF-7 (human breast cancer) which were purchased from the National Cell bank of Pasteur Institute of Iran, Tehran, Iran.
(§4) Stock cell cultures were grown in RPMI 1640 medium (Gibco, USA) supplemented with 10% fetal bovine serum (FBS) and 100 unit per ml of penicillin-streptomycin (Sigma, USA) at 37°C in humidified incubator with 5% CO2 atmosphere. After three day incubation, the cells were detached using 0.25% Trypsin-0.05% EDTA solution (Biogene, Iran), and resuspended in RPMI 1640 medium containing 10% FBS. Cell count and viability was determined by Trypan blue staining followed by hemocytometry.
(§5) After incubation periods, 3-(4,5-Dimethylthiazol-2-yl)-2,5-diphenyltetrazolium bromide , MTT (Sigma, USA) was added to each well at the concentration of 0.5 mg/ml. Subsequently, microtiter plate was incubated for an additional 3 hr at 37°C and each medium was then removed prior to the addition of dimethyl sulfoxide to dissolve the formazan crystal formed by viable cells.

[4] = test system: MCF-7 (human breast cancer); test: MTT cytotoxicity assay, MCF-7; format: cell-based; conditions: MCF7, means of three experiments, 24 hr, read-out: IC50 MCF-7 (anti-proliferative activity)
Procedure: as §3, §4, §5

ovine COX-1 = target: T1, ovine COX-1 (Ovis aries, UniProt P05979); test: biochemical; conditions: mean of two determinations
T1 construct: purchased Cayman Chemical Company 760111
T1 sequence (P05979 25-600): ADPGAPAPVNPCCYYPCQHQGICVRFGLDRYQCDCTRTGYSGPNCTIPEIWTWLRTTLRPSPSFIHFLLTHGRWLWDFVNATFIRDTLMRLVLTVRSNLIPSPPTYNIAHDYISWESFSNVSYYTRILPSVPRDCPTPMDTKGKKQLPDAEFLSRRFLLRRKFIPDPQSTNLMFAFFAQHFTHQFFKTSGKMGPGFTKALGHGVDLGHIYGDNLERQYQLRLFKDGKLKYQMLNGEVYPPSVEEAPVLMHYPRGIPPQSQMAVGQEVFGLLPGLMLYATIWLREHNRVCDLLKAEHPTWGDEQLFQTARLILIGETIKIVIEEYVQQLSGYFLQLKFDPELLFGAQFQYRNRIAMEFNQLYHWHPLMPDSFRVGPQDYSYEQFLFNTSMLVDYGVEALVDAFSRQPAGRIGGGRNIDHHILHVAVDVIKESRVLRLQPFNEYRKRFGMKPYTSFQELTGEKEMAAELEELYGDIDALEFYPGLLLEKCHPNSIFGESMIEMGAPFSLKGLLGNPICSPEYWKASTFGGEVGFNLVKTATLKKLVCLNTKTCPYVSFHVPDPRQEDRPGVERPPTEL
Description: (§6) The same kit for determination of COX-1 and COX-2 inhibition was used by us previously ([11]).

ovine COX-2 = target: T2, ovine COX-2 (Ovis aries, UniProt P79208); test: biochemical; conditions: mean of two determinations
T2 construct: purchased Cayman Chemical Company 760111
T2 sequence (P79208 17-603): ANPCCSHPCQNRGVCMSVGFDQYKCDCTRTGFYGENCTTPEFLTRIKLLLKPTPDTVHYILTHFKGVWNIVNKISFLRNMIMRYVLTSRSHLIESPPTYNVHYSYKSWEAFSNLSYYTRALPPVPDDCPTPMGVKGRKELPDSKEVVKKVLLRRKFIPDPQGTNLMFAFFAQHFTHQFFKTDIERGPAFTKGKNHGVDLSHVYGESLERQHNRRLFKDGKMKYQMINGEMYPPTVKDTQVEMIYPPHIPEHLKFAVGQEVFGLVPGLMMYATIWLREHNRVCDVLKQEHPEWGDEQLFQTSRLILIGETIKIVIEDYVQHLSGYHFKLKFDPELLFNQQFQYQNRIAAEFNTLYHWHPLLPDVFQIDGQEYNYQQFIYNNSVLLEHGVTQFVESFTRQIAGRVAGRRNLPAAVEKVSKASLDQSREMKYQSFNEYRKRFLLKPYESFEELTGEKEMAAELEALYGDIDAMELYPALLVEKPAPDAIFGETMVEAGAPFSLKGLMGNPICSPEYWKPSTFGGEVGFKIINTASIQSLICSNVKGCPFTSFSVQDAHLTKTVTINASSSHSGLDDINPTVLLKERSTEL
Description: as §6

MCF-7 cells = test: Apoptosis assay (propidium iodide flow cytometry, sub-diploid cells), MCF-7; format: cell-based, human; conditions: IC50 concentration, 24 hr; untreated control 12.26
Procedure: as §2

CSc1ncc(C2SCC(=O)N2c2ccc(Cl)cc2)n1Cc1ccccc1 (centres unmarked) [2a, 2-(1-benzyl-2-methylthio-5-imidazolyl)-3-(4-chloro-phenyl)-1,3-thiazolidin-4-ones]
ED50 (mice [1]): 15.1 mg/kg
melting point: 95 to 96 °C
ED50 (mice [2]): 68.3 mg/kg
Apoptosis% (percent sub-diploid cells), Caco-2 (Caco-2 cells): 35%
IC50 [3]: 106 µM
IC50 [4]: 121 µM
IC50 (ovine COX-1): 15.6 µM
IC50 (ovine COX-2): 0.82 µM

CCSc1ncc(C2SCC(=O)N2c2ccc(Cl)cc2)n1Cc1ccccc1 (centres unmarked) [2b, 2-(1-benzyl-2-ethylthio-5-imidazolyl)-3-(4-chloro-phenyl)-1,3-thiazolidin-4-one]
ED50 (mice [1]): 39.9 mg/kg
melting point: 97 to 98 °C
ED50 (mice [2]): 73.6 mg/kg
Apoptosis% (percent sub-diploid cells), Caco-2 (Caco-2 cells): 54.4%
IC50 [3]: 82.3 µM
IC50 [4]: 110 µM
Apoptosis% (percent sub-diploid cells), MCF-7 (MCF-7 cells): 45.9%
IC50 (ovine COX-2): 0.71 µM

CSc1ncc(C2SCC(=O)N2c2ccc(Cl)cc2)n1Cc1ccc(F)cc1 (centres unmarked) [2c, 2-[1-(4-fluorobenzyl)-2-methylthio-5-imidazolyl]-3-(4-chlorophenyl)-1,3-thiazolidin-4-ones]
ED50 (mice [1]): 8.76 mg/kg
melting point: 94 to 95 °C
ED50 (mice [2]): 64 mg/kg

Cc1ccc(-c2cc(C(F)(F)F)nn2-c2ccc(S(N)(=O)=O)cc2)cc1 [Celecoxib, celecoxib, reference compound]
Apoptosis% (percent sub-diploid cells), Caco-2 (Caco-2 cells): 60%
IC50 [3]: 50.1 µM
IC50 [4]: 76.3 µM
Apoptosis% (percent sub-diploid cells), MCF-7 (MCF-7 cells): 59.1%
